Data taken from patent US11214803B2, “Modulators of YAP1 expression” (Ionis Pharmaceuticals, Inc., priority 2019, dated 2022).
Strand notation (5' to 3'): a small letter for the sugar, then the base; units joined by * are phosphorothioate-linked, units joined directly phosphodiester-linked; [ ] holds rarer units or linkages, { } end groups; capitals alone tell only the bases. e = 2'-O-(2-methoxyethyl) (MOE); k = constrained ethyl (cEt); [5mC] = 5-methylcytosine; d = 2'-deoxy (DNA); m = 2'-O-methyl

Test system: Yap1 mRNA
Test: Antisense inhibition of human Yap1 in SNU-449 cells by modified oligonucleotides, single dose (Example 5, RTS36584)
Format: cell-based
Procedure, shortened: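 Free uptake, 2,000 nM, ~48 h, SNU-449 at 10,000 cells/well. Read-out: qRT-PCR (RTS36584), RIBOGREEN-normalised, expressed as % UTC. Asterisk = oligo hits amplicon region.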

[1] = Table 42 (separate experiment), SNU-449 cells, 10,000 cells per well, free uptake, 2,000 nM modified oligonucleotide, approximately 48 hours, RTS36584, normalized to RIBOGREEN, Yap1 mRNA relative to untreated control cells
[2] = Table 51, Yap1 mRNA remaining as percent of untreated control (UT), SNU-449 cells, single dose
[3] = Table 52, Yap1 mRNA, modified oligonucleotides targeting SEQ ID NO: 1 and 2
[4] = Yap1 mRNA, percent of untreated control, modified oligonucleotides targeting SEQ ID NO: 1 and 2, Table 47
[5] = Table 43 experiment, SNU-449 cells, 10,000 cells per well, free uptake, 2,000 nM, approximately 48 hours, RTS36584, Yap1 mRNA normalized to RIBOGREEN, relative to untreated control cells
[6] = Table 41, SNU-449 cells, 10,000 cells per well, free uptake, 2,000 nM modified oligonucleotide, approximately 48 hours, RTS36584, normalized to RIBOGREEN, Yap1 mRNA relative to untreated control cells
[7] = Table 49, Yap1 mRNA level relative to untreated control, modified oligonucleotides targeting SEQ ID NO.: 1 and 2
[8] = Table 45, Yap1 mRNA as percent of untreated control, SNU-449 cells, single dose
[9] = Table 46, Yap1 mRNA as percent of untreated control, SNU-449 cells, single dose
[10] = Table 48, Yap1 mRNA level relative to untreated control, modified oligonucleotides targeting SEQ ID NO.: 1 and 2
[11] = Table 39, SNU-449 cells, 10,000 cells per well, free uptake, 2,000 nM oligonucleotide, approx. 48 hours, RTS36584, normalized to RIBOGREEN, Yap1 mRNA relative to untreated control
[12] = Table 50, Yap1 mRNA remaining as percent of untreated control (UT), SNU-449 cells, single dose
[13] = Table 44 experiment, SNU-449 cells, 10,000 cells per well, free uptake, 2,000 nM, approximately 48 hours, RTS36584, Yap1 mRNA normalized to RIBOGREEN, relative to untreated control cells
[14] = Table 40 (separate experiment), SNU-449 cells, 10,000 cells per well, free uptake, 2,000 nM oligonucleotide, approx. 48 hours, RTS36584, normalized to RIBOGREEN, Yap1 mRNA relative to untreated control

With “1198705 (kT*kA*dA*dG*dG*dT*dT*dT*d[5mC]*d[5mC]*d[5mC]*dA*kG*eA*kT*eT; antisense) [Compound 1198705]” the “YAP1 (% UTC)” value [1] was 70 % UTC.
For “1200787 (kA*kA*kA*dT*dT*mG*dT*d[5mC]*dT*d[5mC]*dA*dT*dG*k[5mC]*k[5mC]*kT) [Compound 1200787]”, the “YAP1 (% UT)” value [2] was 38 % UT.
For “1200834 (kA*kG*kA*dT*dT*mU*dA*dG*dG*dA*dT*dG*d[5mC]*kA*kT*kG; antisense) [Compound 1200834]”, the “YAP1 (% UT)” value [3] was 37 % UT.
“1198206 (kA*kT*dA*dT*dG*dG*dA*dA*dA*dT*dT*eG*eT*e[5mC]*kT*k[5mC]; antisense) [Compound 1198206]” was tested, and the “YAP1 (% UTC)” value [1] was 43 % UTC.
“1198703 (k[5mC]*kT*dT*dT*dA*dA*dA*dG*dT*dG*dT*dA*kT*eG*kT*e[5mC]; antisense) [Compound 1198703]” was tested, and the “YAP1 (% UTC)” value [1] was 42 % UTC.
In the case of “1076187 (kG*kA*kT*dT*dT*dA*dG*dG*dA*dT*dG*d[5mC]*dA*kT*kG*kG; antisense) [Compound 1076187]”, the “YAP1 (% UT)” value [4] is reported as 17 % UT.
In the case of “1197250 (antisense kT*kT*kG*dG*mA*dA*dG*dA*dT*d[5mC]*dT*dG*dA*kA*kA*k[5mC]) [Compound 1197250]”, the “YAP1 (% UT)” value [2] is reported as 60 % UT.
With “1200786 (kA*kA*kT*dT*dG*mU*d[5mC]*dT*d[5mC]*dA*dT*dG*d[5mC]*k[5mC]*kT*kT; antisense) [Compound 1200786]” the “YAP1 (% UT)” value [2] was 21 % UT.
In the case of “1197307 (kA*kT*kA*dT*mU*dG*d[5mC]*dA*dA*dT*d[5mC]*dT*dG*kT*k[5mC]*kT; antisense) [Compound 1197307]”, the “YAP1 (% UT)” value [2] is reported as 88 % UT.
In the case of “1198268 (kA*kA*dG*dT*dG*dT*dA*dT*dG*dT*d[5mC]*eA*eG*eA*kA*kG; antisense) [Compound 1198268]”, the “YAP1 (% UTC)” value [5] is reported as 11 % UTC.
In the case of “1198264 (kT*kA*dT*dG*dT*dA*dA*dT*dA*dT*dT*eG*e[5mC]*eA*kA*kT; antisense) [Compound 1198264]”, the “YAP1 (% UTC)” value [5] is reported as 73 % UTC.
“1198671 (antisense kT*kT*dT*dA*dG*dG*dA*dT*dG*d[5mC]*dA*dT*kG*eG*kT*eT) [Compound 1198671]” was tested, and the “YAP1 (% UTC)” value [6] was 26 % UTC.
With “1200873 (kT*kT*kA*dG*dA*mC*dT*dA*dA*dG*dT*dA*dA*kG*kG*kT; antisense) [Compound 1200873]” the “YAP1 (% UT)” value [3] was 55 % UT.
With “1198642 (kT*kA*dT*dT*dA*dG*dA*dG*dT*dA*dT*dG*kT*eG*kG*e[5mC]; antisense) [Compound 1198642]” the “YAP1 (% UTC)” value [6] was 19 % UTC.
For “1200803 (kG*kG*kT*dA*dT*mA*dA*d[5mC]*dT*dG*dG*dG*d[5mC]*kA*kA*kA; antisense) [Compound 1200803]”, the “YAP1 (% UT)” value [3] was 22 % UT.
For “1197301 (AGATUTAGGATGCATG; chemistry not fully specified) [Compound 1197301]”, the “YAP1 (% UT)” value [2] was 71 % UT.
For “1198569 (antisense CACTTTTACATTAGGA; chemistry not fully specified) [Compound 1198569]”, the “YAP1 (% UT)” value [7] was 14 % UT.
For “1200857 (kA*kG*kT*dG*dT*mA*dT*dG*dT*d[5mC]*dA*dG*dA*kA*kG*kA; antisense) [Compound 1200857]”, the “YAP1 (% UT)” value [3] was 4 % UT.
“1198572 (antisense kA*kA*kG*d[5mC]*dA*d[5mC]*dT*dT*dT*dT*dA*d[5mC]*kA*kT*kT*eA) [Compound 1198572]” was tested, and the “YAP1 (% UT)” value [7] was 53 % UT.
In the case of “1197185 (antisense kA*kA*kG*d[5mC]*dA*d[5mC]*dT*dT*dT*dT*dA*d[5mC]*dA*kT*kT*kA) [Compound 1197185]”, the “YAP1 (% UT)” value [4] is reported as 55 % UT.
With “1198549 (antisense kA*kT*kG*dG*dA*dA*dA*dT*dT*dG*dT*d[5mC]*kT*k[5mC]*kA*eT) [Compound 1198549]” the “YAP1 (% UT)” value [7] was 84 % UT.
For “1198660 (antisense kG*kG*dA*dA*dG*dA*dT*d[5mC]*dT*dG*dA*dA*kA*e[5mC]*kT*e[5mC]) [Compound 1198660]”, the “YAP1 (% UTC)” value [6] was 66 % UTC.
In the case of “1198942 (k[5mC]*kT*dT*dA*dT*dA*dT*dG*dG*dT*dT*kT*dT*kG*dT*kG; antisense) [Compound 1198942]”, the “YAP1 (% UTC)” value [8] is reported as 42 % UTC.
With “1198851 (CAGATTTAGGATGCAT; antisense; chemistry not fully specified) [Compound 1198851]” the “YAP1 (% UT)” value [9] was 82 % UT.
“1197203 (antisense kA*kA*k[5mC]*dT*d[5mC]*dT*dT*dA*dT*dA*dT*dG*dG*kT*kT*kT) [Compound 1197203]” was tested, and the “YAP1 (% UT)” value [10] was 68 % UT.
In the case of “1198345 (kA*kA*kT*dA*dT*dT*dG*d[5mC]*dA*dA*dT*d[5mC]*kT*eG*kT*e[5mC]; antisense) [Compound 1198345]”, the “YAP1 (% UT)” value [10] is reported as 75 % UT.
For “1198387 (kT*d[5mC]*dT*dA*dT*dA*dT*dT*dA*dG*dA*kG*eT*kA*eT*kG; antisense) [Compound 1198387]”, the “YAP1 (% UTC)” value [11] was 84 % UTC.
For “1197244 (antisense kT*kT*kA*d[5mC]*mA*dT*dT*dA*dG*dG*dA*dA*d[5mC]*kA*kA*kG) [Compound 1197244]”, the “YAP1 (% UT)” value [12] was 60 % UT.
With “1198396 (kA*d[5mC]*dT*dT*dT*dT*dA*d[5mC]*dA*dT*dT*kA*eG*kG*eA*kA; antisense) [Compound 1198396]” the “YAP1 (% UTC)” value [11] was 25 % UTC.
In the case of “1198592 (antisense kA*kT*kA*dT*dG*dG*dT*dT*dT*dT*dG*dT*kG*kT*kG*eT) [Compound 1198592]”, the “YAP1 (% UT)” value [12] is reported as 50 % UT.
With “1095398 (antisense k[5mC]*dT*dG*dA*dG*dG*dT*dA*dT*dA*dA*k[5mC]*eT*kG*eG*kG) [Compound 1095398]” the “YAP1 (% UTC)” value [11] was 38 % UTC.
In the case of “1198593 (antisense kT*kT*kA*dT*dA*dT*dG*dG*dT*dT*dT*dT*kG*kT*kG*eT) [Compound 1198593]”, the “YAP1 (% UT)” value [12] is reported as 45 % UT.
“1198563 (antisense kG*kA*kG*dG*dT*dA*dT*dA*dA*d[5mC]*dT*dG*kG*kG*k[5mC]*eA) [Compound 1198563]” was tested, and the “YAP1 (% UT)” value [12] was 53 % UT.
For “1198898 (kA*kT*dA*dT*dG*dG*dA*dA*dA*dT*dT*kG*dT*k[5mC]*dT*k[5mC]; antisense) [Compound 1198898]”, the “YAP1 (% UTC)” value [8] was 53 % UTC.
“1198970 (kT*kA*dA*dG*dT*dA*dA*dG*dG*dT*dT*kT*d[5mC]*k[5mC]*d[5mC]*kA; antisense) [Compound 1198970]” was tested, and the “YAP1 (% UTC)” value [8] was 29 % UTC.
With “1198934 (kA*kT*dT*dT*dA*dG*dG*dA*dT*dG*d[5mC]*kA*dT*kG*dG*kT; antisense) [Compound 1198934]” the “YAP1 (% UTC)” value [8] was 56 % UTC.
With “1198626 (kA*kG*kA*d[5mC]*dT*dA*dA*dG*dT*dA*dA*dG*kG*kT*kT*eT; antisense) [Compound 1198626]” the “YAP1 (% UT)” value [12] was 99 % UT.
For “1198499 (kT*kT*dT*dA*dG*dG*dA*dT*dG*d[5mC]*dA*eT*kG*eG*kT*eT; antisense) [Compound 1198499]”, the “YAP1 (% UTC)” value [13] was 13 % UTC.
With “1198614 (antisense kT*kA*kA*dA*dG*dT*dG*dT*dA*dT*dG*dT*k[5mC]*kA*kG*eA) [Compound 1198614]” the “YAP1 (% UT)” value [12] was 4 % UT.
For “1198628 (TGTCTCATGCCTTATA; modified gapmer, chemistry not fully specified) [Compound 1198628]”, the “YAP1 (% UTC)” value [6] was 27 % UTC.
In the case of “1198752 (kT*eT*kT*dG*dG*dA*dA*dG*dA*dT*d[5mC]*dT*eG*eA*kA*kA; antisense) [Compound 1198752]”, the “YAP1 (% UTC)” value [14] is reported as 111 % UTC.
“1198768 (kA*eT*kA*dT*dG*dG*dT*dT*dT*dT*dG*dT*eG*eT*kG*kT; antisense) [Compound 1198768]” was tested, and the “YAP1 (% UTC)” value [6] was 61 % UTC.
“1198455 (kT*dT*dA*dG*dA*d[5mC]*dT*dA*dA*dG*dT*kA*eA*kG*eG*kT) [Compound 1198455]” was tested, and the “YAP1 (% UTC)” value [11] was 42 % UTC.
“1198667 (antisense kA*kG*dT*dG*d[5mC]*dT*dT*dT*dG*dG*dA*dA*kG*eA*kT*e[5mC]) [Compound 1198667]” was tested, and the “YAP1 (% UTC)” value [6] was 40 % UTC.
For “1198823 (kG*kG*dT*dA*dT*dA*dA*d[5mC]*dT*dG*dG*kG*e[5mC]*kA*eA*kA; antisense) [Compound 1198823]”, the “YAP1 (% UT)” value [9] was 65 % UT.
“1197198 (antisense kA*kT*kT*d[5mC]*dA*dG*dA*dT*dT*dT*dA*dG*dG*kA*kT*kG) [Compound 1197198]” was tested, and the “YAP1 (% UT)” value [4] was 139 % UT.
For “1198901 (kT*kA*dG*dA*dG*dT*dA*dT*dG*dT*dG*kG*d[5mC]*kA*dA*kT; antisense) [Compound 1198901]”, the “YAP1 (% UTC)” value [13] was 28 % UTC.
For “1198767 (kA*eT*kT*d[5mC]*dA*dG*dA*dT*dT*dT*dA*dG*eG*eA*kT*kG; antisense) [Compound 1198767]”, the “YAP1 (% UTC)” value [14] was 65 % UTC.
“1197189 (antisense kT*kT*kT*dG*dG*dA*dA*dG*dA*dT*d[5mC]*dT*dG*kA*kA*kA) [Compound 1197189]” was tested, and the “YAP1 (% UT)” value [4] was 71 % UT.
